In the NIST ThermoML archive (doi:10.1016/j.jct.2016.08.010):

What was measured:
[1] = 100 kPa; for speed of sound: Frequency=3 MHz, Sing-around technique in a fixed-path interferometer; for mass density: Vibrating tube method
[2] = molar heat capacity at constant pressure; settings: 100 kPa, Small sample (50 mg) DSC
[3] = molar heat capacity at constant pressure; xn = mol fraction of the nth substance listed; settings: 100 kPa, Liquid, Small sample (50 mg) DSC
[4] = xn = mol fraction of the nth substance listed; settings: 100 kPa, Liquid; for speed of sound: Frequency=3 MHz, Sing-around technique in a fixed-path interferometer; for mass density: Vibrating tube method

CCCCn1cc[n+](C)c1C.F[B-](F)(F)F [1-butyl-2,3-dimethylimidazolium tetrafluoroborate]
Metastable liquid
Settings | mass density, [1] [kg/m3] | molar heat capacity at constant pressure, [2] [J/K/mol] | speed of sound, [1] [m/s]
293.15 K | 1193.5 | 413.03 | 1659.7
298.15 K | 1191.8 | 416.01 | 1645.7
303.15 K | 1189.7 | 418.84 | 1632.5
308.15 K | 1187.9 | 421.7 | 1619.8

CCCCn1cc[n+](C)c1.F[B-](F)(F)F [1-butyl-3-methylimidazolium tetrafluoroborate]
Liquid
Settings | mass density, [1] [kg/m3] | molar heat capacity at constant pressure, [2] [J/K/mol] | speed of sound, [1] [m/s]
293.15 K | 1203.1 | 362.35 | 1578.1
298.15 K | 1198.9 | 365.12 | 1565.5
303.15 K | 1195.3 | 367.48 | 1554.1
308.15 K | 1191.7 | 369.88 | 1542.3

CCCCn1cc[n+](C)c1.F[B-](F)(F)F [1-butyl-3-methylimidazolium tetrafluoroborate] + CCCCn1cc[n+](C)c1C.F[B-](F)(F)F
x2 = 0
Settings | mass density, [4] [kg/m3] | molar heat capacity at constant pressure, [3] [J/K/mol] | speed of sound, [4] [m/s]
293.15 K | 1203.1 | 362.35 | 1578.1
298.15 K | 1198.9 | 365.12 | 1565.5
303.15 K | 1195.3 | 367.48 | 1554.1
308.15 K | 1191.7 | 369.88 | 1542.3

CCCCn1cc[n+](C)c1.F[B-](F)(F)F [1-butyl-3-methylimidazolium tetrafluoroborate] + CCn1cc[n+](C)c1.F[B-](F)(F)F
x1 = 1
Settings | mass density, [4] [kg/m3] | molar heat capacity at constant pressure, [3] [J/K/mol] | speed of sound, [4] [m/s]
293.15 K | 1203.1 | 362.35 | 1578.1
298.15 K | 1198.9 | 365.12 | 1565.5
303.15 K | 1195.3 | 367.48 | 1554.1
308.15 K | 1191.7 | 369.88 | 1542.3

CCn1cc[n+](C)c1.F[B-](F)(F)F [1-ethyl-3-methylimidazolium tetrafluoroborate]
Liquid
Settings | mass density, [1] [kg/m3] | molar heat capacity at constant pressure, [2] [J/K/mol] | speed of sound, [1] [m/s]
293.15 K | 1283.9 | 303.2 | 1631.1
298.15 K | 1279.9 | 304.53 | 1619.2
303.15 K | 1276.3 | 306.29 | 1607.4
308.15 K | 1272.1 | 308.03 | 1596.2

CCn1cc[n+](C)c1.F[B-](F)(F)F [1-ethyl-3-methylimidazolium tetrafluoroborate] + CCCCn1cc[n+](C)c1C.F[B-](F)(F)F
x2 = 0
Settings | mass density, [4] [kg/m3] | molar heat capacity at constant pressure, [3] [J/K/mol] | speed of sound, [4] [m/s]
293.15 K | 1283.9 | 303.2 | 1631.1
298.15 K | 1279.9 | 304.53 | 1619.2
303.15 K | 1276.3 | 306.29 | 1607.4
308.15 K | 1272.1 | 308.03 | 1596.2
